Consider five compounds from US20230082968A1, “EXOGENOUS NITRIC OXIDE FOR IMPROVED SUSCEPTIBILITY AND LOWERED ANTIBIOTIC RESISTANCE IN RESISTANT RESPIRATORY BACTERIA” (The University of North Carolina at Chapel Hill, priority 2020, published 2023).

Values after ≈ are worked out from the molar mass of the structure shown. “Also recorded” adds a separate entry of the source.

Experiment [1] concerns P. aeruginosa strain K (PAK). As to the kind of experiment: Checkerboard assay of antibiotic combinations with COS/NO. It counts as cell-based, Pseudomonas aeruginosa. The settings on record: antibiotic in combination with COS/NO, 24 h. As to the method:
Frozen stocks of bacteria were reconstituted in TSB (3 mL) and cultured overnight. The overnight cultures of bacteria (3 mL) were inoculated into fresh TSB (30 mL) and grown to 10^8 CFU/mL. […] Inhibition was assessed with the resazurin assay and the minimum inhibitory concentration (MIC) was defined as the lowest concentration of antibacterial agent required to prevent the reduction of resazurin (i.e., color change from blue to pink).
Mol. Pharm. 7, 2289-2296 (2010)]. Briefly, bacteria at a final concentration of 10^6 CFU/mL were incubated with an array of antimicrobial combinations in TSB for 24 h at 37° C. The highest concentration for each antimicrobial tested was 2 × MIC. […] The fractional […] concentration index (ΣFIC) was calculated using Equation 1, reported by Elion et al. [Elion, G. B., Singer, S. & Hitchings, G. H. Antagonists of Nucleic Acid Derivatives: VIII. Synergism in combinations of biochemically related antimetabolites. […] Checkerboard assays were conducted in at least duplicate for each bacterial strain and for each drug combination.
Characterization of the combinations was performed using the following criteria based on ΣFIC values: < 0.25 is highly synergistic; ≤ 0.5 is synergistic; ≤ 1 is additive; ≤ 4 is indifferent; > 4 is antagonistic.

Experiment [2] relates to PAK. Put plainly: Nitric oxide pretreatment with planktonic bacteria. It counts as cell-based, Pseudomonas aeruginosa. The settings on record: NO-pretreatment 25% MIC 4 h. As to the method:
After exposure, wells were serially diluted in sterile MilliQ water and spiral plated on TSA. Viability was assessed by colony counting.

A further experiment has as its system ATCC MRSA. Put plainly: Serial passaging resistance assay. Format: cell-based, Methicillin-resistant S. aureus. As to the method:
(§1) Bacteria at a final concentration of 10^6 CFU/mL in TSB were incubated with serial dilutions of COS/NO and/or tobramycin for 24 h. Growth was assessed by measuring absorbance at 600 nm. The wells that had the highest concentration of test agent and an OD600 corresponding to more than 10^8 CFU/mL were diluted to 10^6 cfu/mL in TSB and incubated with fresh solutions of COS/NO or tobramycin for 24 h. A single passage was defined as one exposure, incubation, and subsequent dilution. Bacteria were passaged for up to 70 days.

For experiment [3], the system named is PAK. As to the kind of experiment: Serial passaging resistance assay. Format: cell-based, Pseudomonas aeruginosa. As to the method: as §1
The test system of experiment [4] is PAK, ATCC MRSA, ATCC BCC, and AR 542. Put plainly: NPN uptake assay (outer membrane permeability). Format: cell-based. Conditions: exposure to COS/NO, FIG. 1. As to the method: The outer membrane permeability of PAK, ATCC MRSA, ATCC BCC, and AR 542 was assessed with an NPN assay modified from Helander and coworkers [Helander, I. M. & Mattila-Sandholm, T. Fluorometric assessment of Gram-negative bacterial permeabilization. J. Appl. Microbiol. 88, 213-219 (2000)]. Briefly, a stock 4560 µM NPN in acetone solution was prepared fresh each day and diluted to 456 µM in PBS pH 7.4. Bacteria were cultured to a concentration of 10^8 CFU/mL in TSB, collected via centrifugation (5,000 × g for 5 min), and resuspended in PBS. Bacteria were added to COS/NO or DMSO in 1-dram vials and incubated at 37° C. with shaking. After 10 min of incubation, a portion of the exposure solution (196 µL) was removed and added to a black well plate, and 4 µL NPN (456 µM in PBS) was added. Fluorescence was immediately measured at excitation and emission wavelengths of 350 nm and 460 nm, respectively. The background NPN fluorescence in buffer was subtracted.

The next experiment has as its system P. aeruginosa biofilms. As to the kind of experiment: Biofilm pretreatment with nitric oxide, all tested biofilms. Format: cell-based. The settings on record: P. aeruginosa biofilms, COS/NO at 25% MBEC. As to the method:
Bacteria were cultured to a concentration of 10^8 CFU/mL in TSB and diluted to 10^6 CFU/mL in 200 µL TSB in a 96 well plate. Plates were incubated with shaking for 3 days until a non-surface attached viscous aggregate formed that was easily separated from growth medium. Biofilms (100 µL) were removed, gently injected into PBS (200 µL) to remove loosely adhered planktonic cells, and added to a sterile 96 well plate. To the wells, PBS or test agent dissolved in PBS (100 µL) was added and incubated with shaking for 24 h. The biofilm (100 µL) was removed from the well plate, added to 900 µL sterile MilliQ water, and disrupted with pipetting and vortexing. Disrupted biofilms were serially diluted and spiral plated on TSA. Viability was assessed with colony counting. The minimum biofilm eradication concentration (MBEC) was defined as the lowest concentration of test agent required to reduce viability by 5-log (i.e., 10^8 to 10^3 CFU/mL).
The biofilm was then removed from its 96 well plate, added to a new 96 well plate containing tobramycin dissolved in PBS (100 µL), and incubated for 20 h. The biofilm was disrupted in 900 µL sterile MilliQ water with pipetting and vortexing, serially diluted, and spiral plated on TSA. Viability was assessed with colony counting.

With `C[C@H]1[C@H](NC(=O)/C(=N\OC(C)(C)C(=O)O)c2csc(N)n2)C(=O)N1S(=O)(=O)O` [Aztreonam], in experiment [1], the “Classification (ΣFIC)” value is on record as “Additive” and the “ΣFIC (median fractional inhibitory concentration index)” value is recorded as 0.75. For the same compound, in the experiment on PAK [2] (antibiotic 2 µg/mL), the Classification entry was “Synergistic” and the “Log Difference in bacteria viability with vs without NO-pretreatment” value (“Log Difference … vs without NO-pretreatment” below) came to 5.11 log.

As to `CC(C)(O/N=C(\C(=O)N[C@@H]1C(=O)N2C(C(=O)[O-])=C(C[n+]3ccccc3)CS[C@H]12)c1csc(N)n1)C(=O)O` [Ceftazidime], in experiment [1], the “Classification (ΣFIC)” value is given as “Additive” and the “ΣFIC (median fractional inhibitory concentration index)” value is reported as 1.

As for `C[C@@H](O)[C@H]1C(=O)N2C(C(=O)O)=C(S[C@@H]3CN[C@H](C(=O)N(C)C)C3)[C@H](C)[C@H]12` [Meropenem], in experiment [1], the “Classification (ΣFIC)” value is “Synergistic” and the “ΣFIC (median fractional inhibitory concentration index)” value is reported as 0.5. Besides, in the experiment with PAK [2] (antibiotic 2 µg/mL), the Classification result is “Synergistic” and the “Log Difference … vs without NO-pretreatment” value came to 3.22 log.

Turning to `[N]=O` [NO, nitric oxide], the MICn against ATCC MRSA (ATCC MRSA, after n = 30 passages) was 384 µg/mL; against PAK [3] (PAK, after n = 70 passages), 96 µg/mL. For the same compound, the MIC with ATCC MRSA (Staphylococcus aureus, MRSA, read-out: MIC0) stood at 384 µg/mL (≈ 12.8 mM); with PAK [3] (Pseudomonas aeruginosa, read-out: MIC0) it was 96 µg/mL (≈ 3.2 mM). The “uptake of the hydrophobic fluorophore NPN and crystal violet dye (cell permeability)” value in experiment [4] was “increased uptake”. The “biofilm viability after NO-pretreatment alone” value in the experiment on P. aeruginosa biofilms is recorded as “does not significantly affect; also recorded: does not significantly reduce”.

Consider Colistin, for which, in experiment [1], the “Classification (ΣFIC)” value was “Synergistic” and the “ΣFIC (median fractional inhibitory concentration index)” value was 0.5. In addition, the “Log Difference … vs without NO-pretreatment” value in the experiment with PAK [2] (antibiotic […]) is on record as 5.13 log.
